Experiments:
[1] = test system: myostatin gene expression in C2C12 cells; assay: Inhibition of myostatin expression in C2C12 cells (qPCR); type: cell-based; conditions: Mus musculus, percentage myostatin gene expression in cells in contact with the compounds related to control cells, C2C12, 6 h
Description: After several experiments in which the C2C12 cells differentiated into myotubes were incubated in the presence of IGF-1 or 20E for 2 h 30 or 6 h, two screening tests were developed. Thus, the phosphorylation of the S6 protein kinase and the expression of the myostatin gene were studied in order to determine their modulation by a growth hormone or an ecdysone and to characterize these modulations from a statistical point of view. The C2C12 myoblast cells (ATCC CRL-1772) are seeded into 24-well plates at a density of 30 000 cells per well and cultured in a DMEM medium containing glucose in a proportion of 4.5 g/l and supplemented with fetal calf serum (10%) and with antibiotics (penicillin and streptomycin). Forty-eight hours later, the myoblasts are induced to differentiate by partial serum depletion (2% instead of 10%) for 5 days. The cells are then placed in a medium which is glucose-depleted (DMEM containing 1 g/l of glucose) and serum-free in the presence of the test molecules or of the references (100 ng/ml IGF-1 or 10 μ[…]) for 6 h. At the end of the experiment, the messenger RNAs (mRNAs) are extracted using the conventional methodology based on phenol and chloroform. Briefly, the cells are lysed in a Trizol solution (Sigma T9424) containing a strong acid and phenol. The mRNAs are separated from the proteins by addition of chloroform and then centrifugation. They are then precipitated from isopropanol and then suspended at a concentration of 1 μg/μl in an […] ultrapure water. 1 μg of mRNA is then converted by reverse transcription into complementary DNA by the AMV enzyme in the presence of a primer and of a mixture of nucleotides according to the protocol given by the supplier (Applied Biosystems 4368814). […] The qPCRs are carried out on a 7900HT Fast real-Time PCR detection system (Applied Biosystems). The programming conditions are standard and consist of 1 cycle at 95° C. for 15 min, followed by 40 cycles at 95° C. for 15 s and at 60° C. for 1 min and the program ends with a melt curve step between 60° C. and 95° C. […] Fluorescent probes bind to the double-stranded DNA and are fluorescent only once bound to the DNA. A fluorescence threshold is established by the machine's program. When the amount of DNA allows the fluorescent probe to exceed this threshold, a PCR cycle number, called “Ct” for “Cycle Threshold”, is obtained. It is this value which forms the basis of the calculations to quantify the DNA relatively. A ratio R is established between the amount of starting DNA of a sample and that of a control, which has not undergone treatment (i.e. […] R=2^-ΔΔCt).

[2] = test system: S6 kinase (S6K1) phosphorylation in C2C12 cells; assay: Phosphorylation of the S6 kinase in C2C12 cells (ELISA pS6K T389), protein synthesis; type: cell-based, mouse; conditions: Mus musculus, C2C12, 2 h; for activity at 10 µM: read-out: Protein synthesis (percentage increase in S6K phosphorylation in muscle cells); for activity: test compounds and 20E reference (10 μM), read-out: S6K1 phosphorylation level
Description: After several experiments in which the C2C12 cells differentiated into myotubes were incubated in the presence of IGF-1 or 20E for 2 h 30 or 6 h, two screening tests were developed. Thus, the phosphorylation of the S6 protein kinase and the expression of the myostatin gene were studied in order to determine their modulation by a growth hormone or an ecdysone and to characterize these modulations from a statistical point of view.
The C2C12 myoblast cells (ATCC CRL-1772) are seeded into 6-well plates at a density of 170 000 cells per well and cultured in a DMEM medium containing glucose in a proportion of 4.5 g/l and supplemented with fetal calf serum (10%) and with antibiotics (penicillin and streptomycin). Forty-eight hours later, the myoblasts are induced to differentiate by partial serum depletion (2% instead of 10%) for 5 days. The cells are then placed in a medium which is glucose-depleted (DMEM containing 1 g/l of glucose) and serum-free in the presence of the test molecules or of the references (100 ng/ml IGF-1 or 10 μM 20E) for 2 h. At the end of the experiment, the cells are lysed in a commercial lysis buffer (Invitrogen FNN0011) supplemented with a commercial mixture of anti-proteases (Roche 05056489001). After centrifugation, the cytoplasmic fraction containing the soluble proteins is kept and the protein concentration is determined using a commercial kit (Biorad 500-0114), the principle of which is composed of assaying by the Lowry method. The assaying of the S6 kinase phosphorylation is carried out using a commercial ELISA (Enzyme Linked ImmunoSorbent Assay) kit (Cell signaling 7063). Briefly, 50 μg of protein lysate are deposited in the wells of a 96-well microplate and incubated overnight at 4° C. with the solution of antigen specific for the pS6 kinase threonine 389 antibody. The binding of the antigen to the bottom of the wells is done electrostatically. The solution of antibody to be assayed (pS6K T389) is then incubated at 37° C. in the wells for 2 hours. The antibodies bind specifically to the antigen. The wells are then washed with washing buffer in order to remove the antigen-specific primary antibodies to be assayed which are in excess. The third step consists in binding the detection antibody. The solution of detection antibodies is incubated at 37° C. in the wells for 1 hour. The wells are then washed in order to remove the excess detection antibodies. It should be noted that the detection antibodies are coupled to an enzyme which, in the presence of its substrate, converts it into a reaction product that can be detected and measured by virtue of the appearance of a coloration. […] The appearance of a blue coloration in the substrate indicates the presence of the antibody to be assayed. In order to prevent any saturation phenomenon, a stop solution (generally containing […]) is added and brings about a change in coloration, which goes from blue to yellow. The strength thereof is proportional to the amount of enzyme present and thus to the concentration of antibody sought. The strength of the signal is measured using spectrophotometry at a wavelength of 450 nm.

C=CCCO/N=C(/C)[C@H]1CC[C@@]2(O)C3=CC(=O)[C@@H]4C[C@@H](O)[C@@H](O)C[C@]4(C)C3CC[C@]12C (stereo partly drawn) [Compound 28, (2S,3R,5R,10R,13R,14S,17S)-17-(N-but-3-enoxy-C-methylcarbonimidoyl)-2,3,14-trihydroxy-10,13-dimethyl-2,3,4,5,9,11,12,15,16,17-decahydro-1H-cyclopenta[a]phenanthren-6-one]
mrna remaining at 10 µM [1]: < 70%
activity at 10 µM [2]: > 130%
activity [2]: 130 to 140%

CCN(CC)CCO/N=C(/C)[C@H]1CC[C@@]2(O)C3=CC(=O)[C@@H]4C[C@@H](O)[C@@H](O)C[C@]4(C)C3CC[C@]12C (stereo partly drawn) [Compound 32, (2S,3R,5R,10R,13R,14S,17S)-17-(N-(2-diethylaminoethoxy)-C-methylcarbonimidoyl)-2,3,14-trihydroxy-10,13-dimethyl-2,3,4,5,9,11,12,15,16,17-decahydro-1H-cyclopenta[a]phenanthren-6-one]
mrna remaining at 10 µM [1]: < 70%
activity at 10 µM [2]: 110 to 129%
activity [2]: ~120%

COCCN(C(=O)COC)C(C)[C@H]1CC[C@@]2(O)C3=CC(=O)[C@@H]4C[C@@H](O)[C@@H](O)C[C@]4(C)C3CC[C@]12C (stereo partly drawn) [Compound 41, 2-methoxy-N-(2-methoxyethyl)-N-[1-[(2S,3R,5R,10R,13R,14S,17S)-2,3,14-trihydroxy-10,13-dimethyl-6-oxo-2,3,4,5,9,11,12,15,16,17-decahydro-1H-cyclopenta[a]phenanthren-17-yl]ethyl]acetamide]
mrna remaining at 10 µM [1]: < 70%
activity at 10 µM [2]: 110 to 129%
activity [2]: ~120%

COCCNC(C)[C@H]1CC[C@@]2(O)C3=CC(=O)[C@@H]4C[C@@H](O)[C@@H](O)C[C@]4(C)C3CC[C@]12C (stereo partly drawn) [Compound 42, (2S,3R,5R,10R,13R,14S,17S)-2,3,14-trihydroxy-17-[1-(2-methoxyethylamino)ethyl]-10,13-dimethyl-2,3,4,5,9,11,12,15,16,17-decahydro-1H-cyclopenta[a]phenanthren-6-one]
activity at 10 µM [2]: > 130%
activity [2]: 130 to 140%

CC(NCc1cccnc1)[C@H]1CC[C@@]2(O)C3=CC(=O)[C@@H]4C[C@@H](O)[C@@H](O)C[C@]4(C)C3CC[C@]12C (stereo partly drawn) [Compound 43, (2S,3R,5R,10R,13R,14S,17S)-2,3,14-trihydroxy-10,13-dimethyl-17-[1-(3-pyridylmethylamino)ethyl]-2,3,4,5,9,11,12,15,16,17-decahydro-1H-cyclopenta[a]phenanthren-6-one]
mrna remaining at 10 µM [1]: < 70%
activity at 10 µM [2]: 110 to 129%
activity [2]: ~120%

C=CCCC(=O)N(CCOC)C(C)[C@H]1CC[C@@]2(O)C3=CC(=O)[C@@H]4C[C@@H](O)[C@@H](O)C[C@]4(C)C3CC[C@]12C (stereo partly drawn) [Compound 52, N-(2-methoxyethyl)-N-[1-[(2S,3R,5R,10R,13R,14S,17S)-2,3,14-trihydroxy-10,13-dimethyl-6-oxo-2,3,4,5,9,11,12,15,16,17-decahydro-1H-cyclopenta[a]phenanthren-17-yl]ethyl]pent-4-enamide]
mrna remaining at 10 µM [1]: < 70%
activity at 10 µM [2]: 110 to 129%
activity [2]: ~120%

COCC(=O)N(CC1CCCO1)C(C)[C@H]1CC[C@@]2(O)C3=CC(=O)[C@@H]4C[C@@H](O)[C@@H](O)C[C@]4(C)C3CC[C@]12C (stereo partly drawn) [Compound 62, 2-methoxy-N-(tetrahydrofuran-2-ylmethyl)-N-[1-[(2S,3R,5R,10R,13R,14S,17S)-2,3,14-trihydroxy-10,13-dimethyl-6-oxo-2,3,4,5,9,11,12,15,16,17-decahydro-1H-cyclopenta[a]phenanthren-17-yl]ethyl]acetamide]
mrna remaining at 10 µM [1]: < 70%
activity at 10 µM [2]: > 130%
activity [2]: 130 to 140%

— US10316056B2, “Chemical compounds and use thereof for improving muscular quality” (BIOPHYTIS, priority 2014, dated 2019)
